How the values were obtained:
[1] = (§1) The drug is tested on Z-025 corresponding to rabbit gut metagenome with ENA study accession number: PRJEB37062 and ENA sample accession number: ERS12561824 for biotransformation under anaerobic condition. The drug concentrations were measured over 9 timepoints collected between 0 and 24 hours of incubation by liquid-chromatography-coupled mass spectrometry (LC–MS); conditions: 2 µM
[2] = as §1, with “WLS-010” for “Z-025”, “human” for “rabbit”, “ERS12561743” for “ERS12561824”; conditions: 2 µM
[3] = as §1, with “WLS-006” for “Z-025”, “human” for “rabbit”, “ERS12561741” for “ERS12561824”; conditions: 2 µM
[4] = as §1, with “Z-021” for “Z-025”, “to” for “to rabbit gut”, “ERS12561820” for “ERS12561824”; conditions: 2 µM
[5] = as §1, with “Z-026” for “Z-025”, “to” for “to rabbit gut”, “ERS12561825” for “ERS12561824”; conditions: 2 µM
[6] = human gut metagenome, 24 h, 2 µM
[7] = as §1, with “WLS-027” for “Z-025”, “human” for “rabbit”, “ERS12561744” for “ERS12561824”; conditions: 2 µM
[8] = as §1, with “Z-001” for “Z-025”, “mouse” for “rabbit”, “ERS12561801” for “ERS12561824”; conditions: 2 µM
[9] = as §1, with “WLS-370” for “Z-025”, “human” for “rabbit”, “ERS12561793” for “ERS12561824”; conditions: 2 µM
[10] = human gut metagenome, 24 h, 2 µM; remark: listed apart in the source
[11] = human gut metagenome, 24 h, 2 µM; remark: listed apart in the source
[12] = human gut metagenome, 24 h, 2 µM; remark: listed apart in the source
[13] = human gut metagenome, 24 h, 2 µM; remark: listed apart in the source
[14] = human gut metagenome, 24 h, 2 µM; remark: listed apart in the source
[15] = human gut metagenome, 24 h, 2 µM; remark: listed apart in the source
[16] = as §1, with “Z-006” for “Z-025”, “mouse” for “rabbit”, “ERS12561806” for “ERS12561824”; conditions: 2 µM
[17] = human gut metagenome, 24 h, 2 µM; remark: listed apart in the source
[18] = as §1, with “WLS-038” for “Z-025”, “human” for “rabbit”, “ERS12561745” for “ERS12561824”; conditions: 2 µM
[19] = human gut metagenome, 24 h, 2 µM; remark: listed apart in the source
[20] = human gut metagenome, 24 h, 2 µM; remark: listed apart in the source
Further: call rule not given here.

Bacterial Biotransformation [1]	Bacterial Biotransformation [2]	Bacterial Biotransformation [3]	Bacterial Biotransformation [4]	Bacterial Biotransformation [5]	Bacterial Biotransformation [6]	Bacterial Biotransformation [7]	Bacterial Biotransformation [8]	Bacterial Biotransformation [9]	Bacterial Biotransformation [10]	Bacterial Biotransformation [11]	Bacterial Biotransformation [12]	Bacterial Biotransformation [13]	Bacterial Biotransformation [14]	Bacterial Biotransformation [15]	Bacterial Biotransformation [16]	Bacterial Biotransformation [17]	Bacterial Biotransformation [18]	Bacterial Biotransformation [19]	Bacterial Biotransformation [20]	Structure (SMILES)
Compound NOT metabolized	Compound NOT metabolized	Compound metabolized	Compound NOT metabolized	Compound NOT metabolized	Compound metabolized	Compound metabolized	Compound NOT metabolized	Compound metabolized	Compound NOT metabolized	Compound NOT metabolized	Compound metabolized	Compound metabolized	Compound NOT metabolized	Compound metabolized	Compound NOT metabolized	Compound metabolized	Compound NOT metabolized	Compound NOT metabolized	Compound NOT metabolized	O=c1n(CCCN2CCN(c3cccc(Cl)c3)CC2)nc2ccccn12 [TRAZODONE]
Compound NOT metabolized	Compound NOT metabolized	Compound metabolized	Compound metabolized	Compound NOT metabolized	Compound metabolized	Compound NOT metabolized	Compound metabolized	Compound metabolized	Compound NOT metabolized	Compound metabolized	Compound metabolized	Compound metabolized	Compound metabolized	Compound metabolized	Compound NOT metabolized	Compound metabolized	Compound NOT metabolized	Compound metabolized	Compound NOT metabolized	OC(CCN1CCCCC1)(c1ccccc1)C1CCCCC1 (stereo not given) [TRIHEXYPHENIDYL]
Compound NOT metabolized	Compound NOT metabolized	Compound metabolized	Compound NOT metabolized	Compound NOT metabolized	Compound NOT metabolized	Compound NOT metabolized	Compound NOT metabolized	Compound NOT metabolized	Compound NOT metabolized	Compound NOT metabolized	Compound NOT metabolized	Compound NOT metabolized	Compound NOT metabolized	Compound NOT metabolized	Compound NOT metabolized	Compound NOT metabolized	Compound NOT metabolized	Compound NOT metabolized	Compound NOT metabolized	Cc1ccc(/C(=C\CN2CCCC2)c2ccccn2)cc1 [TRIPROLIDINE]
Compound metabolized	Compound metabolized	Compound metabolized	Compound NOT metabolized	Compound metabolized	Compound NOT metabolized	Compound NOT metabolized	Compound metabolized	Compound NOT metabolized	Compound NOT metabolized	Compound NOT metabolized	Compound NOT metabolized	Compound NOT metabolized	Compound NOT metabolized	Compound NOT metabolized	Compound NOT metabolized	Compound NOT metabolized	Compound NOT metabolized	Compound NOT metabolized	Compound NOT metabolized	Cc1cn([C@H]2C[C@H](N=[N+]=[N-])[C@@H](CO)O2)c(=O)[nH]c1=O [ZIDOVUDINE]
